The source of these data is patent US20100028259A1, “USE OF ORGANIC CATION TRANSPORTERS FOR CANCER DIAGNOSIS AND THERAPY” (The Regents of the University of California, priority 2006, published 2010).

In one experiment the test system is HEK-hOCT2 cells. Description: MTT drug sensitivity assay in HEK-hOCT2 cells. The experiment is classed as cell-based, human. The procedure:
(§1) Cytotoxicity of the platinum-based compounds was measured by MTT (thiazolyl blue tetrazolium bromide) assay. Cells were seeded in 100 μl of the culture medium without any antibiotics in 96-well plates at a predetermined cell density. For HEK 293 cells, poly-D-lysine coated plates were used. […] For the OCT inhibitor studies, the inhibitors (i.e., disopyramide or cimetidine) were added to the medium at a specified concentration immediately before the addition of the platinum-based compounds. After incubation for a specified time period, the drug-containing medium was replaced with fresh, drug-free medium and the incubation was continued for a total of 72 hours (start from the addition of platinum-based compounds). Then, the MTT assay was performed similarly as described in Alley et al., Cancer Res., 48:589-601 (1988). […] The maximal cell growth was the cell growth in the medium without any platinum-based compounds; C is the concentration of the platinum-based compound, and γ is the slope factor.
(§2) Briefly, the cells were seeded in 96-well plates at a density of 5,000 cells/well for the transfected MDCK cells or 12,000 cells/well for the transfected HEK 293 cells. The platinum-based drugs were added on the following day. After the specified time periods of drug exposure, the drug-containing medium was replaced with fresh, drug-free medium, and the incubation was continued for a total of 72 hours (start from the time when the drug was added). After incubation, the cell growth was determined by an MTT assay. Data are expressed as mean±SD from 3 to 6 independent experiments with each performed in quadruplicate. The resistance factor (RF) was defined as the ratio of the mean IC50 value in the MOCK cells to that in the OCT-transfected cells.
A general note: Formazan colour is commonly taken as a measure of viable cells.

The subject of another experiment is HEK-MOCK cells. The experiment can be described thus: MTT drug sensitivity assay in HEK-MOCK cells (control of HEK-hOCT3). The experiment is classed as cell-based, human. The settings on record: Table 3. The procedure: Cytotoxicity of the platinum-based compounds was measured by MTT (thiazolyl blue tetrazolium bromide) assay. Cells were seeded in 100 μl of the culture medium without any antibiotics in 96-well plates at a predetermined cell density. For HEK 293 cells, poly-D-lysine coated plates were used. After overnight incubation, the platinum-based compounds were then added to the culture medium to give the indicated final concentrations. For the OCT inhibitor studies, the inhibitors (i.e., disopyramide or cimetidine) were added to the medium at a specified concentration immediately before the addition of the platinum-based compounds. After incubation for a specified time period, the drug-containing medium was replaced with fresh, drug-free medium and the incubation was continued for a total of 72 hours (start from the addition of platinum-based compounds). Then, the MTT assay was performed similarly as described in Alley et al., Cancer Res., 48:589-601 (1988). […] The maximal cell growth was the cell growth in the medium without any platinum-based compounds; C is the concentration of the platinum-based compound, and γ is the slope factor.
as §2

Experiment [1] relates to six colon cancer cell lines. Description: MTT drug sensitivity, summary over the six colon cancer cell lines. The experiment is classed as cell-based, human. The procedure:
as §1
The resistance factor (RF) due to the presence of cimetidine was defined as the ratio of the IC50 value in the presence of cimetidine to that in the absence of cimetidine.
The cell seeding density was 6,000-, 8,000-, 6,000-, 15,000-12,000- and 4,000 cells/well for HCT116, HT29, RKO, SW620, LS180, and DLD cells, respectively. When cimetidine (1.5 mM) was used, it was added to the wells immediately before the addition of the platinum-based drugs. The resistance factor (RF) was defined as the ratio of the mean IC50 value in the presence to that in the absence of cimetidine. Data are expressed as mean±SD from six measurements, and each measurement was performed in quadruplicate.

For a further experiment, the system named is MDCK-MOCK cells. Description: Platinum-DNA adduct formation in MDCK-MOCK cells. The format is cell-based, canine. The method, then: After incubation at 37° C. and 5% CO2 for 2 hours, the cells were washed with ice-cold PBS three times and harvested. The genomic DNA was isolated from the cells and the platinum content associated with DNA was determined by ICP-MS and normalized for DNA content. Data are expressed as mean±SD from a typical experiment performed in triplicate. Two independent experiments were conducted and similar results were obtained.
After incubation, the cells were washed with ice-cold PBS three times and harvested. Genomic DNA was isolated from the harvested cells and the DNA-associated platinum content was determined by ICP-MS and normalized for the DNA content. Data are expressed as mean±SD of three measurements.
The platinum content associated with genomic DNA was determined as described in Samimi et al., Clin. Cancer Res., 10:4661-4669 (2004) with some modifications. Briefly, the cells were grown in 100 mm×20 mm dishes in the culture medium without any antibiotics to over 90% confluence. For HEK 293 cells, poly-D-lysine coated dishes were used. Then, the cells were incubated in the culture medium containing the specified concentrations of the platinum-based compounds at 37° C. in 5% CO2 for 2 hours (or 25 min as specified). In some experiments, phosphate buffer (PB: 1.06 mM KH2PO4, 2.97 mM Na2HPO4, pH 7.4) containing 155 mM NaCl (PB—Cl buffer) or 103 mM Na2SO4 (PB—SO4 buffer) was used instead of the culture medium as specified. For the OCT inhibitor study, the incubation medium (buffer) also contained disopyramide or cimetidine). If PB—Cl or PB—SO4 buffer was used, the cells were washed with the same buffer once before drug incubation. After incubation, the cells were washed with ice-cold PBS, scraped, and pelleted. Genomic DNA was isolated from the cell pellets using the Wizard® Genomic DNA Purification Kit (Promega, Madison, Wis.) following the manufacturer's instructions. Briefly, the cells were lysed with Nuclei Lysis Solution. After RNA digestion and protein precipitation, the lysates were centrifuged and the resulting supernatant was aliquoted. The genomic DNA prepared from two different aliquots of the supernatant was used for platinum and DNA content determination, respectively. For the determination of platinum, the DNA samples were treated with 70% nitric acid at 65° C. and diluted in the same way as described above. The platinum content was analyzed using ICP-MS and the DNA content was measured by absorption spectroscopy.

Read-outs that look alike come from different tables or passages of the source.

Broadly, the IC50 is the concentration that gives 50% inhibition. For `O=C1[O][Pt]2([NH][C@@H]3CCCC[C@H]3[NH]2)[O]C1=O` [oxaliplatin], the IC50 stood at 2810 ± 1630 nM in the experiment on HEK-hOCT2 cells (co-incubation with cimetidine 1.5 mM, read-out: IC50 in HEK-hOCT2, cimetidine-treated); 39 ± 25 nM in the experiment with HEK-hOCT2 cells (drug exposure 7 hour, read-out: IC50 HEK-hOCT2); 20 ± 1 nM in the experiment with HEK-hOCT2 cells (drug exposure 24 hour, read-out: IC50 HEK-hOCT2); 19 ± 4 nM with HEK-hOCT2 cells (drug exposure 72 hour, read-out: IC50 HEK-hOCT2); 1470 ± 280 nM in the experiment on HEK-MOCK cells (drug exposure 7 hour); 470 ± 50 nM in the experiment on HEK-MOCK cells (drug exposure 24 hour). The IC50 in the experiment with HEK-MOCK cells (drug exposure 72 hour) was 470 ± 120 nM; in experiment [1] (absence of cimetidine, read-out: mean±SE of IC50 in the six cell lines, control), 3880 ± 1420 nM; in experiment [1] (cimetidine 1.5 mM, read-out: mean±SE of IC50 in the six cell lines, in the presence of cimetidine), 29100 ± 10700 nM. Also, the “DNA-associated platinum level in MDCK-MOCK” value with MDCK-MOCK cells (20 μM, PB—Cl, 25 min) is recorded as 0.0034±0.00087 pmol/μg DNA. The “rb in MDCK-MOCK” value is 1.12±0.29×10^−6 in the experiment on MDCK-MOCK cells (20 μM, PB—Cl, 25 min) and 1.05±0.14×10^−6 in the experiment with MDCK-MOCK cells (20 μM, PB—SO4, 25 min). In addition, the “Pt-DNA adduct level in MDCK-MOCK” value in the experiment on MDCK-MOCK cells (20 μM, PB—SO4, 25 min) is given as 0.0032±0.00042 pmol/μg DNA. The “platinum-DNA adduct level in MDCK-MOCK” value in the experiment with MDCK-MOCK cells (2-hr exposure, oxaliplatin 10 μM, culture medium) is 0.0110±0.0010 pmol/μg DNA. Moreover, the “effect of disopyramide on platinum-DNA adduct formation in MDCK-MOCK” value with MDCK-MOCK cells (disopyramide 150 μM) is “no effect”.
